Results as given in paper PMC4123750 (Cell, 2014).

B1: Nicotiana tabacum DRM methyltransferase domain (NtDRM MTase, residues 255-608) (domain or fragment, UniProt Q76KU6 255-608, looked up)
chain: ETIRLPKPMIGFGVPTEPLPAMVRRTLPEQAVGPPFFYYENVALAPKGVWDTISRFLYDIEPEFVDSKYFCAAARKRGYIHNLPVENRFPLFPLAPRTIHEALPLSKKWWPSWDPRTKLNCLQTAIGSAQLTNRIRKAVEDFDGEPPMRVQKFVLDQCRKWNLVWVGRNKVAPLEPDEVEMLLGFPKNHTRGGGISRTDRYKSLGNSFQVDTVAYHLSVLKDLFPGGINVLSLFSGIGGGEVALYRLGIPLNTVVSVEKSEVNRDIVRSWWEQTNQRGNLIHFNDVQQLNGDRLEQLIESFGGFDLVIGGSPCNNLAGSNRVSRDGLEGKESSLFYDYVRILDLVKSIMSRHKH

How the values were obtained:
NtDRM MTase = molecular target: T1, NtDRM MTase (Nicotiana tabacum, UniProt Q76KU6); assay: X-ray crystal structure, […] A; type: binding; conditions: cofactor site; co-crystallised at protein:sinefungin molar ratio 1:3
T1 sequence (Q76KU6 255-608): B1 chain

crystal structure = molecular target: the molecule itself; assay: crystal structure

Molecule | X-ray crystal structure, 2.8 A (NtDRM MTase) | stoichiometry N (crystal structure)
Nc1ncnc2c1ncn2[C@@H]1O[C@H](C[C@@H](N)CC[C@H](N)C(=O)O)[C@@H](O)[C@H]1O [sinefungin] | NtDRM MTase dimer with each molecule bound to a cofactor analog sinefungin in the active site | –
B1 | – | 2
